In ChEMBL document CHEMBL4024742, “Pharmaceutical Approaches to Target Antibiotic Resistance Mechanisms” (J Med Chem, 2017):
Converted amounts (≈) assume the structure as drawn. One block for each molecule: values may come before it.

Columns and labels:
[1] = system: Escherichia coli; test: Potentiation of 0.016 ug/ml ciprofloxacin induced-antimicrobial activity against Escherichia coli AB1157 assessed as fold reduction in cell viability at 3.13 uM after 4 hrs by time kill assay; assay type: functional
[2] = system: Escherichia coli; test: Potentiation of ciprofloxacin induced-antimicrobial activity against Escherichia coli AB1157 assessed as fold reduction in ciprofloxacin MIC at 12.5 uM by broth microdilution method; assay type: functional
[3] = system: Escherichia coli; test: Potentiation of levofloxacin induced-antimicrobial activity against Escherichia coli AB1157 assessed as fold reduction in levofloxacin MIC at 12.5 uM by broth microdilution method; assay type: functional
[4] = system: Escherichia coli; test: Potentiation of piperacillin induced-antimicrobial activity against Escherichia coli AB1157 assessed as fold reduction in piperacillin MIC at 12.5 uM by broth microdilution method; assay type: functional
[5] = system: Staphylococcus aureus; test: Antibiofilm activity against methicillin-resistant Staphylococcus aureus BAA-1770; assay type: functional
[6] = system: Staphylococcus aureus; test: Antibiofilm activity against methicillin-resistant Staphylococcus aureus BAA-1765; assay type: functional
[7] = system: Staphylococcus aureus; test: Antibiofilm activity against methicillin-resistant Staphylococcus aureus BAA-43300; assay type: functional
[8] = system: Enterobacter; test: Antimicrobial activity against Enterobacter; assay type: functional
[9] = Inhibition of bacterial beta-lactamase CMY-2 using nitrocefin as substrate by spectrophotometric analysis; design: species or system Bacteria
[10] = system: Escherichia coli; test: Antimicrobial activity against Escherichia coli; assay type: functional
[11] = Inhibition of bacterial beta-lactamase KPC-2 using nitrocefin as substrate by spectrophotometric analysis; design: species or system Bacteria
[12] = system: Pseudomonas aeruginosa; test: Antimicrobial activity against Pseudomonas aeruginosa; assay type: functional
[13] = Inhibition of bacterial beta-lactamase TEM-1 using nitrocefin as substrate by spectrophotometric analysis; design: species or system Bacteria
[14] = Inhibition of bacterial beta-lactamase CTX-M-9 using nitrocefin as substrate by spectrophotometric analysis; design: species or system Bacteria
[15] = Inhibition of Escherichia coli PBP2
[16] = system: Escherichia coli; test: Potentiation of florfenicol induced-antimicrobial activity against multi drug-resistant Escherichia coli AG112 assessed as fold reduction in florfenicol MIC at 100 ug/ml by broth microdilution method; assay type: functional
[17] = system: Escherichia coli; test: Potentiation of tetracycline induced-antimicrobial activity against multi drug-resistant Escherichia coli AG112 assessed as fold reduction in tetracycline MIC at 100 ug/ml by broth microdilution method; assay type: functional
[18] = system: Escherichia coli; test: Potentiation of ciprofloxacin induced-antimicrobial activity against multi drug-resistant Escherichia coli AG112 assessed as fold reduction in ciprofloxacin MIC at 100 ug/ml by broth microdilution method; assay type: functional
[19] = system: Staphylococcus aureus; test: Antibacterial activity against planktonic Staphylococcus aureus ATCC 43866 after 24 hrs by broth microdilution method; assay type: functional; conditions: ATCC 43866, 24 h
[20] = system: Staphylococcus aureus; test: Antibacterial activity against planktonic Staphylococcus aureus ATCC 29213 after 24 hrs by broth microdilution method; assay type: functional; conditions: ATCC 29213, 24 h
[21] = system: Staphylococcus aureus; test: Inhibition of biofilm formation in Staphylococcus aureus ATCC 43866 at 25 ug/ml after 24 hrs by MTT assay; assay type: functional; conditions: ATCC 43866, 24 h
[22] = system: Staphylococcus aureus; test: Inhibition of biofilm formation in Staphylococcus aureus ATCC 29213 at 6.2 ug/ml after 24 hrs by MTT assay; assay type: functional; conditions: ATCC 29213, 24 h
[23] = system: Staphylococcus epidermidis; test: Antibacterial activity against planktonic Staphylococcus epidermidis RP62A after 24 hrs by broth microdilution method; assay type: functional
[24] = system: Pseudomonas aeruginosa; test: Antibiofilm activity against wild-type Pseudomonas aeruginosa PAO1 after 24 hrs by crystal violet staining based assay; assay type: functional; conditions: PAO1, 24 h
[25] = system: Staphylococcus epidermidis; test: Inhibition of biofilm formation in Staphylococcus epidermidis RP62A at 0.045 ug/ml after 24 hrs by MTT assay; assay type: functional
[26] = system: Staphylococcus aureus; test: Inhibition of biofilm formation in Staphylococcus aureus ATCC 25923 at 0.045 ug/ml after 24 hrs by MTT assay; assay type: functional; conditions: ATCC 25923, 24 h
[27] = system: Staphylococcus aureus; test: Inhibition of biofilm formation in Staphylococcus aureus 657 at 0.045 ug/ml after 24 hrs by MTT assay; assay type: functional; conditions: Staphylococcus aureus, 657, 24 h
[28] = system: Staphylococcus epidermidis; test: Inhibition of biofilm formation in Staphylococcus epidermidis DSM 3269 at 0.045 ug/ml after 24 hrs by MTT assay; assay type: functional; conditions: DSM 3269, 24 h
[29] = system: Staphylococcus aureus; test: Inhibition of biofilm formation in Staphylococcus aureus 702 at 0.045 ug/ml after 24 hrs by MTT assay; assay type: functional; conditions: Staphylococcus aureus, 702, 24 h
[30] = system: Staphylococcus aureus; test: Inhibition of biofilm formation in Staphylococcus aureus ATCC 29213 at 0.045 ug/ml after 24 hrs by MTT assay; assay type: functional; conditions: ATCC 29213, 24 h
[31] = system: Staphylococcus aureus; test: Antibacterial activity against methicillin-sensitive Staphylococcus aureus by broth microdilution method; assay type: functional
[32] = system: Staphylococcus aureus; test: Potentiation of ciprofloxacin induced-antimicrobial activity against Staphylococcus aureus ATCC 29213 assessed as fold reduction in ciprofloxacin MIC at 31.25 uM by broth microdilution method; assay type: functional
[33] = system: Staphylococcus aureus; test: Antibacterial activity against glycopeptide-intermediate Staphylococcus aureus by broth microdilution method; assay type: functional
[34] = target: T1, Quinolone resistance protein NorA (Staphylococcus aureus, UniProt P0A0J7); test: Inhibition of Staphylococcus aureus 1199B NorA assessed as reduction in ethidium bromide efflux by fluorescence assay
T1 sequence (P0A0J7 whole entry): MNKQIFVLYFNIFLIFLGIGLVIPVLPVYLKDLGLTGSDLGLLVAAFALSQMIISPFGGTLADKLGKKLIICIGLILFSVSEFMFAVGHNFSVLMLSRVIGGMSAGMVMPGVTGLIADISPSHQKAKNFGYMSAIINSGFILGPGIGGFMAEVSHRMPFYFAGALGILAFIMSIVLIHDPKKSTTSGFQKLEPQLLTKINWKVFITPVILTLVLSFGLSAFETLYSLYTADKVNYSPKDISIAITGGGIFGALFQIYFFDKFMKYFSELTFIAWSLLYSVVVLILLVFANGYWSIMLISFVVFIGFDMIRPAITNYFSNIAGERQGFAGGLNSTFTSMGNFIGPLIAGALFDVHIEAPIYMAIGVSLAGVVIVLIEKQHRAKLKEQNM

[35] = system: Staphylococcus aureus; test: Antibiofilm activity against methicillin-resistant Staphylococcus aureus BAA-44 after 24 hrs by crystal violet staining based assay; assay type: functional; conditions: BAA-44, 24 h
[36] = system: Acinetobacter baumannii; test: Antibiofilm activity against multi drug-resistant Acinetobacter baumannii ATCC 19606 assessed as biofilm dispersion after 24 hrs by crystal violet staining based assay; assay type: functional; conditions: ATCC 19606 = CIP 70.34 = JCM 6841, 24 h
[37] = system: Staphylococcus aureus; test: Antibiofilm activity against methicillin-resistant Staphylococcus aureus BAA-44 at 100 uM after 24 hrs by crystal violet staining based assay; assay type: functional; conditions: BAA-44, 24 h

Structure (SMILES): CC1(C)Cc2c(C#N)c(SCCc3ccccc3)nc(N3CCOCC3)c2CO1
- fold change (FC) [1]: 10000
- fold change (FC) [2]: 2
- fold change (FC) [3]: 4
- fold change (FC) [4]: 8

Structure (SMILES): CCCCCc1ccc(C(=O)NCCn2cc(CCCCCc3c[nH]c(NCc4ccc(CCCC)cc4)n3)nn2)cc1
- IC50 [5]: 16 to 18 µM
- IC50 [6]: 16 to 18 µM
- IC50 [7]: 16 to 18 µM

- MIC [8]: ≤ 2 µg/mL
- IC50 [9]: 8 to 327 nM
- MIC [10]: ≤ 2 µg/mL
- IC50 [11]: 8 to 327 nM
- MIC [12]: ≤ 2 µg/mL
- IC50 [13]: 8 to 327 nM
- IC50 [14]: 8 to 327 nM
- IC50 [15]: 3.2 µM
Structure (SMILES): CC(=O)NNC(=O)[C@@H]1CC[C@@H]2CN1C(=O)N2OS(=O)(=O)[O-].[Na+]

Structure (SMILES): c1ccc2c(CN3CCNCC3)cccc2c1
- fold change (FC) [16]: 4
- fold change (FC) [17]: 4
- fold change (FC) [18]: 4

- MIC [19]: 1.5 to 12.5 µg/mL (≈ 5.24 to 43.7 µM)
- MIC [20]: 1.5 to 12.5 µg/mL (≈ 5.24 to 43.7 µM)
- MIC [23]: 1.5 to 12.5 µg/mL (≈ 5.24 to 43.7 µM)
Structure (SMILES): Cc1nn(C)c([N-]C(=O)c2ccc([N+](=O)[O-])cc2)c1[N+]#N
- inhibition at 25 µg/mL [21]: 69 to 96%
- inhibition at 6.2 µg/mL [22]: 86.5%

- IC50 [24]: 4 µM
Structure (SMILES): Cc1cc2nc(N)[nH]c2cc1C

Structure (SMILES): O=C(c1cc(Br)ccc1O)c1[nH]c(Cl)c(Cl)c1Br
- inhibition at 0.045 µg/mL [25]: > 50%
- inhibition at 0.045 µg/mL [26]: > 50%
- inhibition at 0.045 µg/mL [27]: > 50%
- inhibition at 0.045 µg/mL [28]: > 50%
- inhibition at 0.045 µg/mL [29]: > 50%
- inhibition at 0.045 µg/mL [30]: > 50%

Structure (SMILES): COc1cc(O)c2c(C)c(-c3ccccc3)c(=O)[nH]c2c1
- MIC [31]: 17.6 to 35.1 µg/mL (≈ 62.6 to 125 µM)
- fold change (FC) [32]: 4
- MIC [33]: 17.6 to 35.1 µg/mL (≈ 62.6 to 125 µM)
- IC50 [34]: 18 µM

Structure (SMILES): CCCCOc1ccc(/C=C(\C)Cn2cc(CCCCCc3c[nH]c(N)n3)nn2)cc1
- IC50 [35]: 8.55 µM
- IC50 [36]: 44.7 µM
- inhibition at 100 µM [37]: > 94%
